Experimental data from ChEMBL document CHEMBL5241084, “Non-carbohydrate strategies to inhibit lectin proteins with special emphasis on galectins” (Eur J Med Chem, 2021).
One block for each molecule: values may come before it. Starred links: 1 amine or outer side, 2 acyl side, 3 side chain; linkers in the order of their positions; H or OH if unused. Non-standard residues stand in square brackets, D forms with d. Residues, ends and D or L forms follow the SMILES beside them. X2 = O=C(CCc1cccc2c1Cc1c(CCN[*:1])cccc1-2)[*:2]; X3 = O=C(CCc1cccc2c1oc1c(CCN[*:1])cccc12)[*:2]; Nva = CCC[C@H](N)C(=O)O

Legend:
MG-63 = assay: Anticancer activity against human MG-63 cells assessed as reduction in cell viability incubated for 48 hrs by MTT assay; type: functional, cell-based; conditions: MG-63, 48 h
HUVEC = assay: Antiproliferative activity against human HUVEC cells assessed as inhibition of basic fibroblast growth factor stimulated stimulated cell proliferation incubated for 72 hrs by CCK-8 assay; type: functional, cell-based
[1] = target: C-type lectin domain family 4 member K (Homo sapiens, UniProt Q9UJ71); assay: Inhibition of human Langerin overexpressed in human Raji cells incubated for 30 mins by flow cytometry; type: cell-based
P-selectin = target: T1, P-selectin (Homo sapiens, UniProt P16109); assay: Inhibition of P-selectin (unknown origin) incubated for 30 mins by ELISA
T1 sequence (P16109 whole entry): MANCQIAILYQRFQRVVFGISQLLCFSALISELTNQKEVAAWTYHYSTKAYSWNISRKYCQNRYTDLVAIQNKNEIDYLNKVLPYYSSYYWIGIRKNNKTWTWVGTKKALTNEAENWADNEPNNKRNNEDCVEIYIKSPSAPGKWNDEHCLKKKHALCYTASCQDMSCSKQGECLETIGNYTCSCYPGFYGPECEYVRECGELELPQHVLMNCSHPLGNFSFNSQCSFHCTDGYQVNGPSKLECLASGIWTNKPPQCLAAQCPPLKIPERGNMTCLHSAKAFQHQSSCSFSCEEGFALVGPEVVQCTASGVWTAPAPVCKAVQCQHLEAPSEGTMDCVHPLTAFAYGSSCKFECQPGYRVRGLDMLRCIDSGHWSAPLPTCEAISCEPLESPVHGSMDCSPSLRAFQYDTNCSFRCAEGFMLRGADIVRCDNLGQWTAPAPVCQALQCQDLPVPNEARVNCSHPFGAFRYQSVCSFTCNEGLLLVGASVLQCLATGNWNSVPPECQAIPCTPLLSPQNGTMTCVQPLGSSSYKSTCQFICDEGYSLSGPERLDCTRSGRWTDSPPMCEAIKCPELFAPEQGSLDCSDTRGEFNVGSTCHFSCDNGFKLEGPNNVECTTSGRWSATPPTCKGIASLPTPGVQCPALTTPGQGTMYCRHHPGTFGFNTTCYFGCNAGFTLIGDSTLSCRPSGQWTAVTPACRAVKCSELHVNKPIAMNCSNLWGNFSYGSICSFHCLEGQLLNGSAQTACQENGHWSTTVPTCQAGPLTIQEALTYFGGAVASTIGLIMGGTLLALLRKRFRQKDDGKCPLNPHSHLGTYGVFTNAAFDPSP

SK-OV-3 = assay: Anticancer activity against human SK-OV-3 cells assessed as reduction in cell viability and measured after 72 hrs by CellTiter-Glo reagent based assay; type: functional; conditions: SK-OV-3, 72 h
MDCK = assay: Antimigratory activity against dog MDCK cells assessed as inhibition of cell migration preincubated for 0.5 hrs followed by wounding and measured after 24 hrs by wound closure assay; type: functional, cell-based; conditions: Canis lupus familiaris
A549 = assay: Anticancer activity against human A549 cells assessed as reduction in cell viability incubated for 48 hrs by MTT assay; type: functional, cell-based; conditions: A549, 48 h
[2] = Anticancer activity against human MDA-MB-231 cells assessed as reduction in cell viability incubated for 48 hrs by MTT assay; type: functional, cell-based; conditions: MDA-MB-23, 48 h
MCF7 = assay: Anticancer activity against human MCF7 cells assessed as reduction in cell viability incubated for 48 hrs by MTT assay; type: functional, cell-based; conditions: MCF7, 48 h
NCI-H460 = assay: Anticancer activity against human NCI-H460 cells assessed as reduction in cell viability incubated for 48 hrs by MTT assay; type: functional, cell-based; conditions: NCI-H460, 48 h
Galectin-1 [3] = target: T2, Galectin-1 (Homo sapiens, UniProt P09382); assay: Binding affinity to Gal-1 (unknown origin) incubated for 30 mins by RP-HPLC analysis
Galectin-1 [4] = target: T2, Galectin-1; assay: Binding affinity to Gal-1 (unknown origin) by fluorescence spectroscopy
[5] = Anti-angiogenic activity in human MA148 cells xenografted in athymic nude mouse assesed as tumor growth inhibition at 10 mg/kg, sc weekly once for 28 days; type: functional; conditions: MA148, 672 h, time 28 day, read-out: TGI
Galectin-1 [6] = target: T2, Galectin-1; assay: Binding affinity to human Gal-1 assessed as decrease in Gal-1 levels by ELISA
PC-3 = assay: Antiproliferative activity against human PC-3 cells assessed as reduction in cell proliferation incubated for 72 hrs by SRB assay; type: functional, cell-based; conditions: PC-3, 72 h
DU-145 = assay: Antiproliferative activity against human DU-145 cells assessed as reduction in cell proliferation incubated for 72 hrs by SRB assay; type: functional, cell-based; conditions: DU-145, 72 h

T2 sequence (P09382 whole entry): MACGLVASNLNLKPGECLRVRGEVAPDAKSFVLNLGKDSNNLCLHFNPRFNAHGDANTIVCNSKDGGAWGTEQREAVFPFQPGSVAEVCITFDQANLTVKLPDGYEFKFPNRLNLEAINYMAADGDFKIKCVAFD
Sequence of C-type lectin domain family 4 member K (Q9UJ71 whole entry, the tested form may be a part): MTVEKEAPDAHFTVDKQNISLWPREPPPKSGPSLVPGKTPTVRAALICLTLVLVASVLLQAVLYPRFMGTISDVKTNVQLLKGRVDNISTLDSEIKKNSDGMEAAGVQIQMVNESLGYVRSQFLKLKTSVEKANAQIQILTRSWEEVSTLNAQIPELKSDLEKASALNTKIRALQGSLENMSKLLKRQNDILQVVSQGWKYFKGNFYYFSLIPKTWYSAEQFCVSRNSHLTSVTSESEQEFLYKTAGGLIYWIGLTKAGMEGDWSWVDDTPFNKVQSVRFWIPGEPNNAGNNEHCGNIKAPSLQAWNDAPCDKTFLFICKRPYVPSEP

Molecule: CC1CN(Cc2cc(=O)oc3cc(OCc4cn(Cc5ccc(Cl)cc5Cl)nn4)ccc23)CC(C)O1 (centres undefined)
IC50 (MG-63): 0.8 µM

Molecule: CC[C@H](C)[C@H](NC(=O)[C@H](C)NC(=O)CCc1cccc2c1oc1c(CCNC(=O)[C@H](CC(C)C)NC(=O)[C@H](CCCCN)NC(=O)[C@H](CCSC)NC(=O)[C@H](CCC(N)=O)NC(=O)[C@@H](NC(=O)[C@@H](N)CO)C(C)C)cccc12)C(=O)N[C@H](C(=O)N[C@@H](CCCCN)C(=O)N[C@@H](CC(C)C)C(=O)N[C@@H](CC(N)=O)C(=O)N[C@@H](C)C(=O)O)C(C)C (H-SVQMKL[X3]AIVKLNA-OH)
IC50 (HUVEC): 5 µM

IC50 [1]: 1060 µM
Molecule: CCOC(=O)c1sc(=O)[nH]c1C(F)(F)F

IC50 (P-selectin): 0.3 µM
Molecule: CCCCCCCCCCCCCCCCNC(=O)/C=C/c1ccc(-c2[nH]c(-c3ccc(C4=NNC(C=O)C4)cc3)nc2-c2ccc(/C=C/C(=O)O)cc2)cc1 (centres undefined)

Molecule: CCC[C@H](NC(=O)[C@H](CCC(N)=O)NC(=O)[C@@H](NC(=O)[C@@H](N)CO)C(C)C)C(=O)N[C@@H](CCCCN)C(=O)N[C@@H](CC(C)C)C(=O)NCCc1cccc2c1Cc1c(CCC(=O)N[C@H](C(=O)N[C@H](C(=O)N[C@H](C(=O)N[C@@H](CCCCN)C(=O)N[C@@H](CC(C)C)C(=O)N[C@@H](CC(N)=O)C(=O)N[C@@H](C)C(=O)O)C(C)C)[C@@H](C)CC)[C@@H](C)CC)cccc1-2 (H-SVQ[Nva]KL[X2]IIVKLNA-OH)
IC50 (HUVEC): 10 µM

IC50 (SK-OV-3): 15.7 µM
Molecule: CC(=O)OCCN(CCOC(C)=O)c1ccc(-c2nc3cc(C(CC(N)=O)NC(=O)C(N)Cc4ccc(Cl)c(Cl)c4)ccc3n2Cc2ccc(F)c(F)c2)cc1 (centres undefined)

IC50 [1]: 590 µM
Molecule: O=C(O)c1cccnc1Nc1cccc(C(F)(F)F)c1 [NIFLUMIC ACID]

Molecule: COc1cccc2c1[C@H](CO)N1[C@@H](C#N)[C@H]3C[C@@H](C(=O)O)[C@H]([C@@H]1C2)N3C
IC50 (MDCK): 140 µM

IC50 [1]: 1030 µM
Molecule: Cc1n[nH]c(C)c1Cc1ccc(O)cc1

IC50 [1]: 1150 µM
Molecule: CCN1CCN(CC(C)c2ccc(F)cc2)CC1 (centres undefined)

IC50 [1]: 1190 µM
Molecule: CCOC(=O)C1CCNC(=O)C1O (centres undefined)

IC50 (A549): 0.63 µM
IC50 (MCF7): 1.3 µM
IC50 (NCI-H460): 0.99 µM
Molecule: Oc1cccc(-n2cc(COc3ccc(-c4nc5cc(Cl)ccc5n4Cc4ccccc4)cc3)nn2)c1
IC50 [2]: 0.94 µM

IC50 (MCF7): 7.01 µM
Activity (Galectin-1 [3]): 85.4%
Molecule: O=C(Nc1ccc(O)cc1)c1ccc(-c2nc3cc(Cl)ccc3n2Cc2ccccc2)cc1

Ka (Galectin-1 [4]): 6.6 10^5/M
Molecule: COc1ccc2c(c1)c(C/C=C(/O)c1cc3ccccc3oc1=O)cn2Cc1cccc(Cl)c1

Molecule: H-ANIKLSVQMKLFKRHLKWKIIVKLNDGRELSLD-OH
inhibition in vivo at 10 mg/kg [5]: 80%

IC50 (Galectin-1 [6]): 100 µM
IC50 (PC-3): 7.45 µM
IC50 (DU-145): 8.95 µM
Molecule: CCOC(=O)C1CCN(Cc2cc(=O)oc3cc(OCc4ccc([N+](=O)[O-])cc4)ccc23)CC1

Molecule: COc1c(C)c(OC)c2c(c1OCc1ccccc1)[C@H](COCc1ccccc1)N1[C@@H]3[C@H]4[C@H](C[C@H]([C@@H]1C#N)N4C)C(=O)N[C@H]23
IC50 (MDCK): 32.5 µM

IC50 [1]: 580 µM
Molecule: CCOC(=O)c1cc(C(F)(F)F)n[nH]1
